Data reported in US20240139211A1, “METHODS AND COMPOSITIONS FOR TREATING AMYOTROPHIC LATERAL SCLEROSIS” (Amylyx Pharmaceuticals, Inc., priority 2022, published 2024).
Like-named read-outs stand apart in the source and are kept apart here.

Experiments:
OATP1B1 = OATP1B1 (Homo sapiens, UniProt Q9Y6L6); experiment: Substrate of OATP1B1, uptake in HEK293 cells
Excerpt: (§1) Vector-transfected HEK cells were used as a control.

BSEP = BSEP (Homo sapiens, UniProt O95342); experiment: Substrate of BSEP; details: test article 1 and 10 μM
BSEP, sequence (O95342 whole entry): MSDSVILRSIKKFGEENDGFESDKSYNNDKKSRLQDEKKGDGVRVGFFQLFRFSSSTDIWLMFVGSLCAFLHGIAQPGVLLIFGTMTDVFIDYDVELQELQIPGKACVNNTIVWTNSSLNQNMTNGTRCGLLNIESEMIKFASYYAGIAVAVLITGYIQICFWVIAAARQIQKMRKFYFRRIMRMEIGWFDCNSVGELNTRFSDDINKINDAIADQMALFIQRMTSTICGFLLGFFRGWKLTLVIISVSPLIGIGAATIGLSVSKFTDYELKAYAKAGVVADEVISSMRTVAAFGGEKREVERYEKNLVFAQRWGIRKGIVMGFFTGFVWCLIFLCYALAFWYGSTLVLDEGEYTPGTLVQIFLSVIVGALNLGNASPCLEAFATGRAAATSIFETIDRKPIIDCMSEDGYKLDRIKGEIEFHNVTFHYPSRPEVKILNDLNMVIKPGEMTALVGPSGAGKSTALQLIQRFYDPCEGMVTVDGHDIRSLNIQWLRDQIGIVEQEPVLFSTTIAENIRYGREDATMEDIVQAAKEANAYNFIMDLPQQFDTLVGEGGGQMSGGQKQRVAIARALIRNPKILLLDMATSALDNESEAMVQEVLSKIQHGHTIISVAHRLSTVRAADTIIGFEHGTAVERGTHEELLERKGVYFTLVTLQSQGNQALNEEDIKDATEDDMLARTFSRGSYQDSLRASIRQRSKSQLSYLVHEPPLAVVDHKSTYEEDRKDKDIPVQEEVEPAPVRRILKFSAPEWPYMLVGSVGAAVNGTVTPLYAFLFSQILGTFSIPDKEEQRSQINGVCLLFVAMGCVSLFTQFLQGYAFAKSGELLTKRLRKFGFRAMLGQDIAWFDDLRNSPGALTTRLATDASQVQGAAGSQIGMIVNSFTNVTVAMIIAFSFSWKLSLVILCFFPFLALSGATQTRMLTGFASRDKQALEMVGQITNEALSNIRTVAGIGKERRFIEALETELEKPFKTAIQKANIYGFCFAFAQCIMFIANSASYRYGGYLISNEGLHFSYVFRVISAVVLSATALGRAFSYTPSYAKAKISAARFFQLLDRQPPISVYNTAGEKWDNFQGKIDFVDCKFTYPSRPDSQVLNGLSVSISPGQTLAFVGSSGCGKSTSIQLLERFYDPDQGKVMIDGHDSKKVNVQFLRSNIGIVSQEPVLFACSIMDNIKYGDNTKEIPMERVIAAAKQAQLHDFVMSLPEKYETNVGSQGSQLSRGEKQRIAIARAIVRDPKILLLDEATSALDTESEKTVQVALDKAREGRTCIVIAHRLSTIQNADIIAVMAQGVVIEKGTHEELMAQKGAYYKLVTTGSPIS

BCRP = target: T1, BCRP (Homo sapiens, UniProt Q9UNQ0); experiment: Substrate of BCRP (Caco-2 cells, selective inhibitor)
T1 sequence (Q9UNQ0 1-655): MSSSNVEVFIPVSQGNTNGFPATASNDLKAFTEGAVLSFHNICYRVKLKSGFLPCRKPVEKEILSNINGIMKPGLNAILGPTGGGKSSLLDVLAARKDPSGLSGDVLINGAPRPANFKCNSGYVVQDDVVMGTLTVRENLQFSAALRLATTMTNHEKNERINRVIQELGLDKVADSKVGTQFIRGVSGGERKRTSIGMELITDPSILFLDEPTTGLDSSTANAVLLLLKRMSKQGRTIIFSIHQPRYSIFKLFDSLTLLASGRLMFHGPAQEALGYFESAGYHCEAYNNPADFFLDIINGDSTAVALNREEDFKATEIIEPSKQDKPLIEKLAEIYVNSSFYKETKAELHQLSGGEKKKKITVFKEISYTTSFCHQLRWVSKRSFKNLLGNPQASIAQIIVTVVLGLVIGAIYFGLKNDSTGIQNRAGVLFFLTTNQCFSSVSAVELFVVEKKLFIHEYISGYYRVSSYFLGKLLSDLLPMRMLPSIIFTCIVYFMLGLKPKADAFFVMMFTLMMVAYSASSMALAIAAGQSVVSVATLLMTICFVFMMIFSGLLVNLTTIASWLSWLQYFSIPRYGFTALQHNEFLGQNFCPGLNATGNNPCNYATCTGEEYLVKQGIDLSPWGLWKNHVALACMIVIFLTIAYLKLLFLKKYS

CYP1A2 mRNA = experiment: CYP1A2 gene expression induction in hepatocyte cultures; details: for Inducer of CYP1A2 (conclusion): gene expression and enzyme activity, three donors
in vitro = details: human, Caco-2
OAT1 = target: T2, OAT1 (Homo sapiens, UniProt Q4U2R8); experiment: Inhibitor of OAT1, probe substrate uptake; details: for Inhibition of OAT1 / Inhibitor of OAT1: two concentrations per test article; for potency estimated from few doses: read-out: Estimated IC50, OAT1
T2 sequence (Q4U2R8 1-563): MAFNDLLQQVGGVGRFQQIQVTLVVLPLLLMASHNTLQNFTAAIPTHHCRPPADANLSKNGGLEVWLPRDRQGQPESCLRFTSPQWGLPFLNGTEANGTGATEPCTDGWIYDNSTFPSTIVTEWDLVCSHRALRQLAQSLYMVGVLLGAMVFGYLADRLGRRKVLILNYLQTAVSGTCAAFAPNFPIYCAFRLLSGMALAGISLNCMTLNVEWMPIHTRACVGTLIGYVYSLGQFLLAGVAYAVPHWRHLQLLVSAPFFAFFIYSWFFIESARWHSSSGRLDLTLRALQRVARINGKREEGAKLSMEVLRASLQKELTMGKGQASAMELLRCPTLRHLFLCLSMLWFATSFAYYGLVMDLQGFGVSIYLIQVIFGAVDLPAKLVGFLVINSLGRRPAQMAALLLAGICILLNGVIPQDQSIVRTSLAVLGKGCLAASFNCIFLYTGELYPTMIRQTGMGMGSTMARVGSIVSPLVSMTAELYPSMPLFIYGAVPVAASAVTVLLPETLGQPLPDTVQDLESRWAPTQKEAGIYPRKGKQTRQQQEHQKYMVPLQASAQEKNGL

OATP1B3 = OATP1B3 (Homo sapiens, UniProt Q9NPD5); experiment: Inhibitor of OATP1B3, probe substrate uptake; details: for potency estimated from few doses: read-out: Estimated IC50, OATP1B3; for Inhibition of OATP1B3 / Inhibitor of OATP1B3: two concentrations per test article
OATP1B3, sequence (Q9NPD5 whole entry): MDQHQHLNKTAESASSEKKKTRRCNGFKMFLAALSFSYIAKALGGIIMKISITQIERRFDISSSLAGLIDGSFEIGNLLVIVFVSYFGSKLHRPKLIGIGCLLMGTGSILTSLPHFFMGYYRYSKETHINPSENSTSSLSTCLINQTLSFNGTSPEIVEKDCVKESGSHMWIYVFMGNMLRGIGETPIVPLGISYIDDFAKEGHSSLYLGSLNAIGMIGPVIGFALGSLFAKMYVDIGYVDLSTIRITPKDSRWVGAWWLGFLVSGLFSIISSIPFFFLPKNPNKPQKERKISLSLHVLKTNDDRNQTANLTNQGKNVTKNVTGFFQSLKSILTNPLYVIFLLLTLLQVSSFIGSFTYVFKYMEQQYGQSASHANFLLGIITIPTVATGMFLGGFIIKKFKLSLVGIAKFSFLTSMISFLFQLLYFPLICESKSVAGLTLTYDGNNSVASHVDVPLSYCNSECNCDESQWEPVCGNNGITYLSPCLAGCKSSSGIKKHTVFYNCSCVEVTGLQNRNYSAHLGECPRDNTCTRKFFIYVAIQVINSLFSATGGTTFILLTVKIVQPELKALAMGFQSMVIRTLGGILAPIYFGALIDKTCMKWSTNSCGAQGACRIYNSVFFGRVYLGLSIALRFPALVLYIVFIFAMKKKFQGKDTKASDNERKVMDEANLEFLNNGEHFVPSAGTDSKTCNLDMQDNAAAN

P-gp = P-gp (Homo sapiens, UniProt P08183); experiment: Inhibitor of P-gp, 3H-digoxin efflux in Caco-2 cells; details: for potency estimated from few doses: read-out: Estimated IC50, P-gp
P-gp, sequence (P08183 whole entry): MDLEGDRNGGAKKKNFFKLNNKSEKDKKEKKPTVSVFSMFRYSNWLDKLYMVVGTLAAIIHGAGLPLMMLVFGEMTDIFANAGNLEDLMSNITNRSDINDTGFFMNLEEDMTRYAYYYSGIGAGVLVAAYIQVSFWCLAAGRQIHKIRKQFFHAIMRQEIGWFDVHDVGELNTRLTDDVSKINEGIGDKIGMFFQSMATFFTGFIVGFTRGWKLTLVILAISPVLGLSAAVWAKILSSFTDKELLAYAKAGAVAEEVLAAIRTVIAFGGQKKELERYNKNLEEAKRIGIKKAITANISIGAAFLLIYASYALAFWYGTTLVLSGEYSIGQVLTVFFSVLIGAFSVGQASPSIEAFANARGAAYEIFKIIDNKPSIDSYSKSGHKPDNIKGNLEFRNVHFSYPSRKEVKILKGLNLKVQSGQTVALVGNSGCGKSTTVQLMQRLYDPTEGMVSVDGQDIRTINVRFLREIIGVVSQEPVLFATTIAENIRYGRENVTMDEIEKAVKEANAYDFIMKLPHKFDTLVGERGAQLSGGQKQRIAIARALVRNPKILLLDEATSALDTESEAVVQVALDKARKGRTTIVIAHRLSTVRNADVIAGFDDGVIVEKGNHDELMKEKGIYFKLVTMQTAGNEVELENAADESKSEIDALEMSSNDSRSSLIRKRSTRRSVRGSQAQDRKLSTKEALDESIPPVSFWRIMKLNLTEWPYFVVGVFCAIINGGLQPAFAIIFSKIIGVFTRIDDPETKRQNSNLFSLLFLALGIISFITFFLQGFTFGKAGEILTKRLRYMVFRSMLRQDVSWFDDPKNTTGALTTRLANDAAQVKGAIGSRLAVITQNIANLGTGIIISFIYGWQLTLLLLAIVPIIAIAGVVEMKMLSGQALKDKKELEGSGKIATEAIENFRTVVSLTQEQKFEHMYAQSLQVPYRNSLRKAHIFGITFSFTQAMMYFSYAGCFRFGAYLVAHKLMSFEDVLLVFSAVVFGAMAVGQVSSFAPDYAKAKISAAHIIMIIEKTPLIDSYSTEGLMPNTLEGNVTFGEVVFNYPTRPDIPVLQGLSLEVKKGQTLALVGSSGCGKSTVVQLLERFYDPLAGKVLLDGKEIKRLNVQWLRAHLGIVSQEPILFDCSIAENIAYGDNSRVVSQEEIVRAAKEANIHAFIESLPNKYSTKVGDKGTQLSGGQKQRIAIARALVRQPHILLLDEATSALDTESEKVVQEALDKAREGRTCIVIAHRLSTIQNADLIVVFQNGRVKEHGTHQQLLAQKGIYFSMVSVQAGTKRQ

human hepatocytes = experiment: Stability of test articles in hepatocyte cultures; details: two concentrations
OCT2 [1] = target: T3, OCT2 (Homo sapiens, UniProt O15244); experiment: Inhibitor of OCT2, probe substrate uptake; details: two concentrations per test article
T3 sequence (O15244 1-555): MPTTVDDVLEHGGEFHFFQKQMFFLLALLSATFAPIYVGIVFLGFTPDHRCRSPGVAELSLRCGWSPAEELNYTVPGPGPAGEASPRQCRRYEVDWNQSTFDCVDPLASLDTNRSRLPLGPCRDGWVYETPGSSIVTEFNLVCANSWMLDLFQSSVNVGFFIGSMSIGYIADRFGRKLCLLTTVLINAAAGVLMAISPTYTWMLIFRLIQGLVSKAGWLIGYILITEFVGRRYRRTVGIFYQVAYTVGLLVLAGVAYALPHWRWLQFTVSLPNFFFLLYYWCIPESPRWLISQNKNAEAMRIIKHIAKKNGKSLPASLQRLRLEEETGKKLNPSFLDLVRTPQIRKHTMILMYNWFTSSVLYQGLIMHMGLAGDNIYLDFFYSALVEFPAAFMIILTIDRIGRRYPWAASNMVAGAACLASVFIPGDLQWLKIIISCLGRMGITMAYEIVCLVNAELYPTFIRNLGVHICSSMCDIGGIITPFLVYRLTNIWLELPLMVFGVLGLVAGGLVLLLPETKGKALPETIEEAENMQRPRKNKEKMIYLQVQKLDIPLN

MATE2K = MATE2K (Homo sapiens, UniProt Q86VL8); experiment: Substrate of MATE2-K, uptake in HEK293 cells
MATE2K, sequence (Q86VL8 1-566 isoform Q86VL8-3): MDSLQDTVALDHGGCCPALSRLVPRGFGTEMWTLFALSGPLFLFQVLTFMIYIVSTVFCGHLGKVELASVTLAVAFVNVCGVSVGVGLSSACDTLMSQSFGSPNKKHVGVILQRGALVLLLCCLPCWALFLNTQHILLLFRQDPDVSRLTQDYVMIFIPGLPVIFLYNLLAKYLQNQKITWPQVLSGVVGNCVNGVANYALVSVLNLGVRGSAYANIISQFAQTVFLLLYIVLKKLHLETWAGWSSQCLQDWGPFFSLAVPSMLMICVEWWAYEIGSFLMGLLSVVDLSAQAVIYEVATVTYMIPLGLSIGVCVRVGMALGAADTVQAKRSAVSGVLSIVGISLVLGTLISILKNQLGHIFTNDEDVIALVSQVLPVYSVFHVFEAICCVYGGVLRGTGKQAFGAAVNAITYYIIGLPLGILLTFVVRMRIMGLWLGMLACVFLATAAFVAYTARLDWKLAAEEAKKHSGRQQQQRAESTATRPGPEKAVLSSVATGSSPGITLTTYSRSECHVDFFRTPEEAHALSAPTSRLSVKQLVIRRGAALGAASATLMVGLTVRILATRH
Excerpt: as §1

OCT2 [2] = target: T3, OCT2; experiment: Substrate of OCT2, uptake in HEK293 cells
Excerpt: as §1

[3] = test article 1 and 10 μM, Caco-2 cells
[4] = estimated from two concentrations
[5] = Caco-2, two concentrations per test article
[6] = estimated from two concentrations, Caco-2 cells
[7] = two concentrations per test article, Caco-2 cells
[8] = Caco-2, estimated from two doses

OATP1B1, sequence (Q9Y6L6 whole entry): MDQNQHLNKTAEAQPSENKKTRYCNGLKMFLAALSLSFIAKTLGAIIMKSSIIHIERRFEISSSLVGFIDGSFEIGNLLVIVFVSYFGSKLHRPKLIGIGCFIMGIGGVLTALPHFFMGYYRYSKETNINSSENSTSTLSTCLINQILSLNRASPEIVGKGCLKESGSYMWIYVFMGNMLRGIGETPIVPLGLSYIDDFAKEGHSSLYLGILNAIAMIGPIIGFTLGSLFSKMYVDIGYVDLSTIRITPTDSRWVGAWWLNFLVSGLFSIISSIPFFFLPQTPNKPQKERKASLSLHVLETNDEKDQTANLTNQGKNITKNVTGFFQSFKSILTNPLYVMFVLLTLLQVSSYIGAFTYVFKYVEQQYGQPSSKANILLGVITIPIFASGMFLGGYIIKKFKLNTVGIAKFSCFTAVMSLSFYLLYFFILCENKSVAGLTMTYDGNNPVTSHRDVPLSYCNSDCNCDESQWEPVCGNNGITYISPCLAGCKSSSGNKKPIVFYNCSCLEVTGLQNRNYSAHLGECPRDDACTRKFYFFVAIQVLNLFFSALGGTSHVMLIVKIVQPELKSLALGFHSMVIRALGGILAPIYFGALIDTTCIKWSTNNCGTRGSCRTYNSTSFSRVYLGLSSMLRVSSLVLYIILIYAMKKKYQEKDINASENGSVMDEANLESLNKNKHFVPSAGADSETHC

## C[C@H](CCC(=O)NCC(=O)O)[C@H]1CC[C@H]2[C@@H]3[C@@H](O)C[C@@H]4C[C@H](O)CC[C@]4(C)[C@H]3CC[C@]12C [Glycoursodeoxycholic acid, glycoursodeoxycholic acid]
OATP1B1; human, 5 min, 10 μM
  Fold uptake by OATP1B1 over vector control: 7.56 fold
  Fold uptake by OATP1B1 over vector control with known inhibitors: 1.80 fold
BSEP
  Substrate of BSEP: Yes
BCRP; Caco-2
  Efflux remaining with Ko143: < 18.8%
BCRP; Caco-2, 1 and 10 μM
  Substrate of BCRP: as a substrate
BCRP; [3]
  Substrate of BCRP: Yes
CYP1A2 mRNA; Donor 1
  Emax, CYP1A2 gene expression: 11.7 fold
CYP1A2 mRNA; Donor 2
  Maximum fold induction of CYP1A2 gene expression: 13.0 fold
CYP1A2 mRNA; Donor 3
  Maximum fold induction of CYP1A2 gene expression: 7.83 fold
CYP1A2 mRNA
  Inducer of CYP1A2 (conclusion): as an inducer
In vitro
  Papp A→B: ≥ 2.4 ×10⁻⁶ cm/s
  Papp B→A: ≥ 6.84 ×10⁻⁶ cm/s
  efflux ratio at 1 μM: 1.86
  efflux ratio at 10 μM: 2.85
  recovery: ≥ 75%
OAT1
  Inhibition of OAT1: did not inhibit
  Inhibitor of OAT1: No
OATP1B3; 100 μM
  Uptake activity remaining, OATP1B3: 10.6%
OATP1B3; [4]
  potency estimated from few doses: < 100 µM
OATP1B3
  Inhibition of OATP1B3: inhibited
  Inhibitor of OATP1B3: Yes
P-gp; [5]
  Inhibitor of P-gp: identified as an inhibitor
P-gp; [6]
  potency estimated from few doses: < 10 µM
P-gp; [7]
  Inhibitor of P-gp: Yes
Human hepatocytes; 1 hour
  % of time zero remaining in hepatocyte cultures: ≤ 88.8%
Human hepatocytes; 4 hours
  % of time zero remaining in hepatocyte cultures: ≤ 75.4%
Human hepatocytes; 24 hours
  % of time zero remaining in hepatocyte cultures: ≤ 34.7%
OCT2 [1]
  Inhibition of OCT2: did not inhibit
  Inhibitor of OCT2: No

## O=C(O)CCCc1ccccc1 [PB, sodium phenylbutyrate]
BSEP
  Substrate of BSEP: No
BCRP; Caco-2, 1 and 10 μM
  Substrate of BCRP: not a substrate
BCRP; [3]
  Substrate of BCRP: No
In vitro
  Papp A→B: ≤ 28.9 ×10⁻⁶ cm/s
  Papp B→A: 254 ×10⁻⁶ cm/s
MATE2K; human, 2 min
  Decrease of MATE2-K uptake by known inhibitor: > 25%
  Uptake in MATE2-K cells: 27.5 pmol/minute/mg protein
OAT1; 25 μM
  Uptake activity remaining, OAT1: 21.1%
OAT1; [4]
  potency estimated from few doses: < 25 µM
OAT1
  Inhibition of OAT1: inhibited
  Inhibitor of OAT1: Yes
OATP1B3
  Inhibition of OATP1B3: did not inhibit
  Inhibitor of OATP1B3: No
P-gp; [5]
  Inhibitor of P-gp: not an inhibitor
P-gp; higher test concentration
  Remaining P-gp activity, % of the control: 106%
P-gp; lower test concentration
  Remaining P-gp activity, % of the control: 93.5%
P-gp; [7]
  Inhibitor of P-gp: No
Human hepatocytes; 1 hour
  % of time zero remaining in hepatocyte cultures: ≤ 84.0%
Human hepatocytes; 4 hours
  % of time zero remaining in hepatocyte cultures: ≤ 60.7%
Human hepatocytes; 24 hours
  % of time zero remaining in hepatocyte cultures: 0%
OCT2 [1]
  Inhibition of OCT2: did not inhibit
  Inhibitor of OCT2: No

## tauroursodeoxycholic acid [TUDCA]
OATP1B1; 1 and 10 μM
  Substrate of OATP1B1: not a substrate
OATP1B1; test article 1 and 10 μM
  Substrate of OATP1B1: No
BSEP
  Substrate of BSEP: Yes
OCT2 [2]; 1 and 10 μM
  Substrate of OCT2: not a substrate
OCT2 [2]; test article 1 and 10 μM
  Substrate of OCT2: No
BCRP; Caco-2, 1 and 10 μM
  Substrate of BCRP: as a substrate
BCRP; [3]
  Substrate of BCRP: Yes
CYP1A2 mRNA
  Inducer of CYP1A2 (conclusion): did not meet the classification requirements to be identified as an inducer
MATE2K; 1 and 10 μM
  Substrate of MATE2-K: not a substrate
MATE2K; test article 1 and 10 μM
  Substrate of MATE2-K: No
OAT1
  Inhibition of OAT1: did not inhibit
  Inhibitor of OAT1: No
OATP1B3; 50 μM
  Uptake activity remaining, OATP1B3: roughly 18%
OATP1B3; [4]
  potency estimated from few doses: < 50 µM
OATP1B3; estimated from two doses
  potency estimated from few doses: < 50 µM
OATP1B3
  Inhibition of OATP1B3: inhibited
  Inhibitor of OATP1B3: Yes
P-gp; [5]
  Inhibitor of P-gp: identified as an inhibitor
P-gp; higher test concentration
  Remaining P-gp activity, % of the control: 57.3%
P-gp; lower test concentration
  Remaining P-gp activity, % of the control: 78.8%
P-gp; [8]
  potency estimated from few doses: > 50 µM
P-gp; [6]
  potency estimated from few doses: > 50 µM
P-gp; [7]
  Inhibitor of P-gp: Yes
Human hepatocytes; 1 hour
  % of time zero remaining in hepatocyte cultures: ≤ 79.9%
Human hepatocytes; 4 hours
  % of time zero remaining in hepatocyte cultures: ≤ 75.9%
Human hepatocytes; 24 hours
  % of time zero remaining in hepatocyte cultures: ≤ 23.5%
OCT2 [1]
  Inhibition of OCT2: did not inhibit
  Inhibitor of OCT2: No

## ursodeoxycholic acid
OATP1B1; 1 and 10 μM
  Substrate of OATP1B1: not a substrate
OATP1B1; test article 1 and 10 μM
  Substrate of OATP1B1: No
OCT2 [2]; 1 and 10 μM
  Substrate of OCT2: not a substrate
OCT2 [2]; test article 1 and 10 μM
  Substrate of OCT2: No
BCRP; Caco-2, 1 and 10 μM
  Substrate of BCRP: not a substrate
BCRP; [3]
  Substrate of BCRP: No
MATE2K; 1 and 10 μM
  Substrate of MATE2-K: not a substrate
MATE2K; test article 1 and 10 μM
  Substrate of MATE2-K: No
OAT1; [4]
  potency estimated from few doses: < 500 µM
OAT1; estimated from two doses
  potency estimated from few doses: < 500 µM
OAT1
  Inhibition of OAT1: inhibited
  Inhibitor of OAT1: Yes
OATP1B3; 50 μM
  Uptake activity remaining, OATP1B3: 545.1%
OATP1B3; 500 μM
  Uptake activity remaining, OATP1B3: no uptake activity remaining
OATP1B3; [4]
  potency estimated from few doses: < 50 µM
OATP1B3; estimated from two doses
  potency estimated from few doses: < 50 µM
OATP1B3
  Inhibition of OATP1B3: inhibited
  Inhibitor of OATP1B3: Yes
P-gp; [5]
  Inhibitor of P-gp: identified as an inhibitor
P-gp; higher test concentration
  Remaining P-gp activity, % of the control: 13.0%
P-gp; lower test concentration
  Remaining P-gp activity, % of the control: 348%
P-gp; [8]
  potency estimated from few doses: < 500 µM
P-gp; [6]
  potency estimated from few doses: < 500 µM
P-gp; [7]
  Inhibitor of P-gp: Yes^a
Human hepatocytes; 1 hour
  % of time zero remaining in hepatocyte cultures: ≤ 93.1%
Human hepatocytes; 4 hours
  % of time zero remaining in hepatocyte cultures: ≤ 61.0%
Human hepatocytes; 24 hours
  % of time zero remaining in hepatocyte cultures: ≤ 2.35%
OCT2 [1]
  Inhibition of OCT2: did not inhibit
  Inhibitor of OCT2: No
